Measured values: US9937210B2, “Method for isolating fraction having anti-inflammatory or osteoarthritis-inhibiting effects by using oyster shell chips” (Seojin Biotech Co., Ltd., priority 2012, dated 2018)
Where “and” joins values, the source holds several entries; their conditions need not be identical. Identical values can stand only once.

Key:
[1] = tested on: animal models of osteoarthritis C57BL/6J mouse; test: Osteoarthritis index (histopathology, method of Rudolphi) in papain-induced osteoarthritis; type: in vivo
Protocol: (§1) 40 eight week-old animal models of osteoarthritis C57BL/6J mouse were purchased from Central Laboratory Animal Inc. (Seoul, Korea), adapted with a general diet for 1 week and then used in the experiments. The temperature and humidity of the breeding room were maintained at 20±2° C., 50±10%, the lightening conditions were such that the light was turned on and off every 12 hours and the light was kept on from 07:00˜19:00. During the experiment, the feedstuff (Orient Bio, Seoul, Korea) and water were to be freely taken.
(§2) The osteoarthritis was induced by the method given in the test guidelines of the effect of the herbal preparation presented by the Korean Food and Drug Administration. Papain (type IV, double crystallized, 15 units/mg, Sigma, USA) was adjusted to a concentration of 1.0% (w/v) in which 0.03 ML-cystein HCl (Sigma, USA) was supplemented for the activation of papain and then passed through the patellar ligament. […] 6 was administered in the right knee joint to induce osteoarthritis.
The experiment animals were adapted in a lab environment for 1 week and then the body weight was measured. Eight animals were assigned to each group to have even body weight. In the normal group, the physiological saline 6 was injected in the right knee joint and then the physiological saline 0.2 ml was orally administered once a day for 20 days. In the treated groups, i.e., a control group, a drug-administered group and a fraction 3-administered group, papain 6 was injected in the right knee joint to induce osteoarthritis. The physiological saline in the control group, Diclofenac sodium (DS, 2 mg/kg/bw) in the drug-administered group, and 100 mg/kg/bw {below, called “fraction 3 (100)”} and 200 mg/kg/bw {below, called “fraction 3 (200)”} in the fraction 3-administered group of Example 2 were orally administered once daily at a predetermined time for 20 days.
All subjects were lightly anesthetized with ether at the experiment end day to take a heart blood sample. The blood was centrifuged to isolate a serum. Immediately after taking a heart blood sample, the right hip joint and ankle joint were isolated and removed so as not to damage the knee joint. The tibial of the right knee joint was fixed in 10% neutral formalin solution for 24 hours and then used for the visual observation of the joints.
The osteoarthritis index for the observed histopathological lesions in the articular cartilage and synovial membrane was digitalized in accordance with a method of Rudolphi, at al. and is shown in Table 2 below.

[2] = tested on: animal models of osteoarthritis C57BL/6J mouse; test: Visual observation of knee joint cartilage surface in papain-induced osteoarthritis; type: in vivo; settings: DS 2 mg/kg/bw; fraction 3 100 and 200 mg/kg/bw; oral once daily 20 days
Protocol: as §1, §2
The experiment animals were adapted in a lab environment for 1 week and then the body weight was measured. Eight animals were assigned to each group to have even body weight. In the normal group, the physiological saline 6 was injected in the right knee joint and then the physiological saline 0.2 ml was orally administered once a day for 20 days. […]

[3] = tested on: TNF-α; test: TNF-α content in blood, ELISA, papain-induced arthritis; type: in vivo, mouse; settings: DS 2 mg/kg/bw; fraction 3 100 and 200 mg/kg/bw; oral once daily 20 days
Protocol: The experiment animals were adapted in a lab environment for 1 week and then the body weight was measured. Eight animals were assigned to each group to have even body weight. In the normal group, the physiological saline 6 was injected in the right knee joint and then the physiological saline 0.2 ml was orally administered once a day for 20 days. In the treated groups, i.e., a control group, a drug-administered group and a fraction 3-administered group, papain 6 was injected in the right knee joint to induce osteoarthritis. The physiological saline in the control group, Diclofenac sodium (DS, 2 mg/kg/bw) in the drug-administered group, and 100 mg/kg/bw {below, called “fraction 3 (100)”} and 200 mg/kg/bw {below, called “fraction 3 (200)”} in the fraction 3-administered group of Example 2 were orally administered once daily at a predetermined time for 20 days. All subjects were lightly anesthetized with ether at the experiment end day to take a heart blood sample. The blood was centrifuged to isolate a serum. […] The contents of tumor necrosis factor-α (TNF-α), interleukin-1β (IL-1β) and interleukin-6 (IL-6) were measured using enzyme-linked immunosorbent assay (ELISA) kit, respectively. The effect of fraction 3 of the inflammatory cytokine TNF-α produced in large quantities in animals where arthritis was induced by injection of papain, was measured by ELISA method.

[4] = tested on: IL-1β; test: Interleukin-1β content in blood, ELISA, papain-induced arthritis; type: in vivo, mouse; settings: DS 2 mg/kg/bw; fraction 3 100 and 200 mg/kg/bw; oral once daily 20 days; p<0.05
Protocol: The experiment animals were adapted in a lab environment for 1 week and then the body weight was measured. Eight animals were assigned to each group to have even body weight. In the normal group, the physiological saline 6 was injected in the right knee joint and then the physiological saline 0.2 ml was orally administered once a day for 20 days. In the treated groups, i.e., a control group, a drug-administered group and a fraction 3-administered group, papain 6 was injected in the right knee joint to induce osteoarthritis. The physiological saline in the control group, Diclofenac sodium (DS, 2 mg/kg/bw) in the drug-administered group, and 100 mg/kg/bw {below, called “fraction 3 (100)”} and 200 mg/kg/bw {below, called “fraction 3 (200)”} in the fraction 3-administered group of Example 2 were orally administered once daily at a predetermined time for 20 days. All subjects were lightly anesthetized with ether at the experiment end day to take a heart blood sample. The blood was centrifuged to isolate a serum. […] The contents of tumor necrosis factor-α (TNF-α), interleukin-1β (IL-1β) and interleukin-6 (IL-6) were measured using enzyme-linked immunosorbent assay (ELISA) kit, respectively. The effect of fraction 3 of the inflammatory cytokine IL-1β produced in large quantities in animals where arthritis was induced by injection of papain was measured by ELISA method.

[5] = tested on: IL-6; test: Interleukin-6 content in blood, ELISA, papain-induced arthritis; type: in vivo, mouse; settings: DS 2 mg/kg/bw; fraction 3 100 and 200 mg/kg/bw; oral once daily 20 days
Protocol: The experiment animals were adapted in a lab environment for 1 week and then the body weight was measured. Eight animals were assigned to each group to have even body weight. In the normal group, the physiological saline 6 was injected in the right knee joint and then the physiological saline 0.2 ml was orally administered once a day for 20 days. In the treated groups, i.e., a control group, a drug-administered group and a fraction 3-administered group, papain 6 was injected in the right knee joint to induce osteoarthritis. The physiological saline in the control group, Diclofenac sodium (DS, 2 mg/kg/bw) in the drug-administered group, and 100 mg/kg/bw {below, called “fraction 3 (100)”} and 200 mg/kg/bw {below, called “fraction 3 (200)”} in the fraction 3-administered group of Example 2 were orally administered once daily at a predetermined time for 20 days. All subjects were lightly anesthetized with ether at the experiment end day to take a heart blood sample. The blood was centrifuged to isolate a serum. Immediately after taking a heart blood sample, the right hip joint and ankle joint were isolated and removed so as not to damage the knee joint. […] The contents of tumor necrosis factor-α (TNF-α), interleukin-1β (IL-1β) and interleukin-6 (IL-6) were measured using enzyme-linked immunosorbent assay (ELISA) kit, respectively.

[6] = Papain + DS 2 mg/kg/bw oral once daily 20 days, group mean
[7] = Papain + DS 2 mg/kg/bw oral once daily 20 days, individual animals 1-8

Compound: O=C(O)Cc1ccccc1Nc1c(Cl)cccc1Cl [DS, Diclofenac sodium]
- osteoarthritis index compared with the papain-administered control group ([1]; DS 2 mg/kg/bw, fraction 3 100 and 200 mg/kg/bw, oral once daily 20 days, p<0.05): significantly lower
- Cellularity score, Mean [1, 6]: 2.0
- Matrix structure score, Mean [1, 6]: 2.6
- Subchondral bone score, Mean [1, 6]: 1.1
- Synovial membrane score, Mean [1, 6]: 1.5
- Sum of osteoarthric score, Mean ([1]; Papain + DS 2 mg/kg/bw oral once daily 20 days, group mean, papain control 19.8): 7.4
- Cellularity score, per subject [1, 7]: 2
- Matrix structure score, per subject [1, 7]: 1 (3×) and 3 (4×) and 6
- Subchondral bone score, per subject [1, 7]: 3 (3×) and 0 (5×)
- Sum of osteoarthric score, per subject [1, 7]: 6 (2×) and 4 and 11 (2×) and 5 and 8 (2×)
- Synovial membrane score, per subject [1, 7]: 0 (3×) and 1 and 3 (4×)
- visual appearance of knee joint cartilage surface compared with papain-administered group [2]: the scope of the discoloration was less and the elimination of visual cartilage surface was not observed
- TNF-α content in blood compared with papain-administrated control group [3]: significantly lower
- IL-1β content in blood compared with papain-administrated control group [4]: significantly lower
- IL-6 content in blood compared with papain-administrated control group [5]: significantly lower
